Values joined by “and” are separate entries in the source; they are usually repeats but may differ in a detail not shown here. Identical values can stand only once.
Tests used:
[1] = tested on: edema in a retinal visual cell layer of diabetic rats; assay: Rat Test 1: edema in retinal visual cell layer after intraocular ischemia/reperfusion in STZ diabetic rats; type: in vivo, Sprague Dawley rats; conditions: 32 mg/kg oral once a day, 2 weeks plus 2 days reperfusion
Experimental: (§1) Diabetes mellitus was induced in male Sprague Dawley rats (8-week-old) weighing about 250 g by injecting streptozotocin (STZ manufactured by Sigma) intravenously into their tail at the dose of 60 mg/kg. One week after the treatment with STZ, serum glucose was measured, and rats with at least 300 mg/dl glucose were then used in the experiment as diabetic rats. The set groups were the following 3 groups, and after 2 weeks after the treatment with STZ, 5% gum arabic solution or SNK-860 solution was orally administered once a day. • (1) Normal control group (5 rats): Given 5% gum arabic solution in a ratio of 5 ml/kg. • (2) Diabetic control group (7 rats): Given 5% gum arabic solution in a ratio of 5 ml/kg. • (3) Diabetic group given 32 mg/kg SNK-860 (4 rats): Given a suspension of SNK-860 (32 mg/5 ml) in 5% gum arabic solution in a ratio of 5 ml/kg.
(§2) After administration for 2 weeks, intraocular ischemia was caused by the treatment described below. After the treatment was finished, the animals were maintained as usual for 2 days, and thereafter, the eyeballs were excised and histologically evaluated. Administration of the pharmacological agent was also conducted for a period (2 days) of reperfusion after ischemic treatment. […]
(§3) In each of the resulting retinal images, the thickness of the visual cell layer was measured. […]

[2] = tested on: nuclei in the inner retinal layer (ganglion cell layer) of diabetic rats; assay: Rat Test 1: loss of nuclei from ganglion cells after ischemia/reperfusion in STZ diabetic rats; type: in vivo, Sprague Dawley rats; conditions: 32 mg/kg oral once a day, 4 rats
Experimental: as §1, §2, §3

[3] = tested on: edema in a retinal visual cell layer of diabetic rats; assay: Rat Test 2: edema in retinal visual cell layer after intraocular ischemia/reperfusion in STZ diabetic rats; type: in vivo
Experimental: The test was carried out in accordance with Efficacy Pharmacological Test Example 1. The set groups were the following 4 groups, and from 2 weeks after the treatment with STZ, 5% gum arabic solution or SNK-860 solution was orally administered once a day. • (1) Normal control group (10 rats): Given 5% gum arabic solution in a ratio of 5 ml/kg. • (2) Diabetic control group (9 rats): Given 5% gum arabic solution in a ratio of 5 ml/kg. • (3) Diabetic group given 2 mg/kg SNK-860 (10 rats): Given a suspension of SNK-860 (2 mg/5 ml) in 5% gum arabic solution in a ratio of 5 ml/kg. • (4) Diabetic group given 32 mg/kg SNK-860 (9 rats): Given a suspension of SNK-860 (32 mg/5 ml) in 5% gum arabic solution in a ratio of 5 ml/kg. Retinal ischemia produced by increasing the intraocular pressure was in accordance with Efficacy Pharmaceutical Test Example 1. Histological evaluation was also in accordance with Efficacy Pharmaceutical Test Example 1.

[4] = tested on: edema in the macular central fovea of diabetic monkeys; assay: Monkey Test: thickness and volume of macular central fovea (OCT) after ischemia/reperfusion in STZ diabetic monkeys; type: in vivo, Macaca fascicularis
Experimental: Diabetes mellitus was induced in male monkeys (Macaca fascicularis) (3-year-old) weighing about 2.1 to 2.4 kg by intravenously injecting STZ into their foreleg vein at the dose of 80 mg/kg. Two days after the treatment with STZ, blood glucose level was measured, and monkeys with at least 200 mg/dl glucose were then used in the experiment as diabetic monkeys. Insulin was administered subcutaneously once or twice per day into monkeys showing a blood glucose level of 300 mg/dl. The set groups were the following 3 groups, and from 2 weeks after the treatment with STZ, 5% gum arabic solution or SNK-860 solution was orally administered once a day. • (1) Normal control group (4 monkeys): Given 5% gum arabic solution in a ratio of 5 ml/kg. • (2) Diabetic control group (6 monkeys): Given 5% gum arabic solution in a ratio of 5 ml/kg. • (3) Diabetic group given 32 mg/kg SNK-860 (4 monkeys): Given a suspension of SNK-860 (32 mg/5 ml) in 5% gum arabic solution in a ratio of 5 ml/kg.
After administration for 2 weeks, intraocular ischemic treatment was carried out as described below, and after the treatment was finished, the animals were maintained as usual for 7 days. Before the ischemic treatment and 7 days after treatment, the thickness and volume of the macular central fovea (in the diameter range of 1 mm from the center of the macula lutea) were measured by an OCT scanner (Stratus OCT, Carl Zeiss). Administration of the pharmacological agent was also conducted for the period (7 days) of reperfusion after the ischemic treatment.
Retinal ischemia produced by increasing intraocular pressure was in accordance with Efficacy Pharmaceutical Test Example 1. However, the size of the needle used was 25 G×½ (Terumo). After a mydriatic (Mydrin P manufactured by Santen Pharmaceutical) was dropped onto the right eye, the monkey was anesthetized by intramuscularly administering ketaral (Sankyo Life Tech). Subsequently, a local anesthetic (Benoxyl eye drop 0.4%) was dropped onto the eye, and the monkey was prevented from blinking with an eyelid speculum. Anesthesia with ketaral was additionally carried out when necessary.
The thickness and volume of the macular central fovea were measured in the following manner. After a mydriatic (Mydrin P) was dropped onto the right eye of the monkey to dilate the pupil of the eye sufficiently, the monkey was anesthetized by intramuscularly administering Ketaral. Thereafter, the monkey was allowed to sit on a monkey chair and the head was fixed. […] On the basis of the resulting cross-sectional macular image, the thickness and volume of the macular central fovea were analyzed.

[5] = tested on: patients with diabetic macular edema; assay: Clinical Results: macula lutea thickness (OCT), corrected visual acuity and safety in patients with diabetic macular edema; type: in vivo, humans
Experimental: Among patients with diabetic maculopathy, 10 patients with diabetic macular edema having a retinal thickening or a hard exudates in a posterior pole of the retina were subjects. SNK-860 was orally administered in a dose of 30 mg (2 tablets each containing 15 mg SNK-860) once a day before breakfast for 8 weeks. During this test period, simultaneous use of eparlestat, intravitreal injection and sub-Tenon injection of an adrenal cortical hormone, and photocoagulation and vitrectomy were prohibited. Basic therapy of diabetes mellitus was carried out so as to give good blood glucose control throughout the test period.
Evaluation was carried out in terms of the thickness of the macular central fovea (in the diameter range of 1 mm from the center of macula lutea) and the thickness at the center of the central fovea measured by optical coherence tomography (OCT, Carl Zeiss), as well as corrected visual acuity (Log MAR).
Log MAR (Log Minimum Angle of Resolution) is one kind of logarithmic visual acuity, which is visual acuity expressed in logarithmic minimum angle of resolution. Decimal visual acuity 1.0 used frequently in Japan is 0.0 in terms of Log MAR, and decimal visual acuity 0.1 is 1.0 in Log MAR. A log MAR visual acuity of 0.1 to 0.5 corresponds to a decimal visual acuity of 0.8 to 0.32.

[6] = 32 mg/kg oral once a day for 2 weeks, before ischemia
[7] = 32 mg/kg oral once a day, 7 days after ischemia
[8] = 30 mg oral once a day for 8 weeks, 12 eyes, mean ± standard deviation
[9] = 30 mg oral once a day for 8 weeks, out of 12 eyes
[10] = baseline before administration, 12 eyes in 10 cases, mean ± standard deviation

With NC(=O)[C@@H]1C[C@]2(NC(=O)NC2=O)c2cc(F)ccc2O1 [SNK-860, (2S,4S)-6-Fluoro-2′,5′-dioxospiro[chroman-4,4′-imidazolidine]-2-carboxamide] the “edema / thickness of the visual cell layer (ischemic/re-perfused eye vs untreated eye)” value [1] was “no edema was observed”, the “loss of nuclei from ganglion cells” value [2] was “loss of nuclei was not observed in all 4 rats” and the “inhibitory action on edema in visual cell layer” value ([3]; 2 mg/kg oral once a day) was “no inhibitory action on edema was observed”. The “inhibitory action on edema in visual cell layer” value ([3]; 32 mg/kg oral once a day) was “an evident inhibitory action on edema was observed”, the “formation of edema in macular central fovea” value ([4]; 32 mg/kg oral once a day) was “formation of edema or its change was not observed” and the “Average macula lutea thickness, Before ischemia” value [4, 6] was 157 ± 6 μm. For the same compound, the “Average macula lutea volume, Before ischemia” value [4, 6] was 0.123 ± 0.005 mm^3, the “Average macula lutea thickness, 7 days after ischemia” value [4, 7] was 158 ± 2 μm and the “Average macula lutea volume, 7 days after ischemia” value [4, 7] was 0.124 ± 0.001 mm^3. The “Corrected visual acuity, Week 8” value [5, 8] was 0.24 Log MAR and 0.24 ± 0.20 Log MAR, the “Macula lutea thickness, Center of central fovea, Week 8” value [5, 8] was 298.7 μm and 298.7 ± 90.6 μm and the “Macula lutea thickness, Central fovea (diameter: 1 mm), Week 8” value [5, 8] was 300.4 μm and 300.4 ± 74.4 μm. The “Corrected visual acuity (eye number), 1-stage deterioration” value [5, 9] was 1 eyes, the “Corrected visual acuity (eye number), 1-stage improvement” value [5, 9] was 2 eyes and the “Corrected visual acuity (eye number), 2-stage improvement” value [5, 9] was 3 eyes. The “Corrected visual acuity (eye number), Unchanged” value [5, 9] was 6 eyes, the “side effects (safety)” value ([5]; 30 mg oral once a day for 8 weeks, patients) was “no particularly problematic side effects were recognized” and the “Macula lutea thickness, Center of central fovea, When initiated” value [5, 10] was 323.1 μm and 323.1 ± 111.4 μm. The “Macula lutea thickness, Central fovea (diameter: 1 mm), When initiated” value [5, 10] was 324.3 μm and 324.3 ± 87.7 μm and the “Corrected visual acuity, When initiated” value ([5]; baseline before administration, 12 eyes, mean ± standard deviation) was 0.30 Log MAR and 0.30 ± 0.22 Log MAR.
